In PubChem BioAssay (NCI):
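Compound exposure: 48 hours, 5 concentrations, 96-well plates. GI50 marks 50% less growth. TGI marks complete inhibition of growth.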

Experiments:
Assay in all cases: NCI tumour cell line growth inhibition, 48 h
NCI-H226 lung = tested on: NCI-H226 lung
A549 NSCLC = tested on: A549 NSCLC
RXF 393 renal = tested on: RXF 393 renal
HT29 colon = tested on: HT29 colon
UACC-62 melanoma = tested on: UACC-62 melanoma
ACHN renal = tested on: ACHN renal
T-47D breast = tested on: T-47D breast
OVCAR-3 ovarian = tested on: OVCAR-3 ovarian
BT-549 breast = tested on: BT-549 breast
U251 CNS = tested on: U251 CNS
KM12 colon = tested on: KM12 colon
SF-295 CNS = tested on: SF-295 CNS
COLO 205 colon = tested on: COLO 205 colon
SR leukemia = tested on: SR leukemia
NCI-H522 lung = tested on: NCI-H522 lung
K-562 leukemia = tested on: K-562 leukemia
CAKI-1 renal = tested on: CAKI-1 renal
TK-10 renal = tested on: TK-10 renal
SK-MEL-28 melanoma = tested on: SK-MEL-28 melanoma
HOP-92 NSCLC = tested on: HOP-92 NSCLC
EKVX NSCLC = tested on: EKVX NSCLC
786-0 renal = tested on: 786-0 renal
HCT-15 colon = tested on: HCT-15 colon
M14 melanoma = tested on: M14 melanoma
NCI-H23 lung = tested on: NCI-H23 lung
SF-268 CNS = tested on: SF-268 CNS
PC-3 prostate = tested on: PC-3 prostate
NCI/ADR-RES ovarian = tested on: NCI/ADR-RES ovarian
SW-620 colon = tested on: SW-620 colon
NCI-H460 lung = tested on: NCI-H460 lung
LOX IMVI melanoma = tested on: LOX IMVI melanoma
HCT-116 colon = tested on: HCT-116 colon
SK-MEL-5 melanoma = tested on: SK-MEL-5 melanoma
SK-MEL-2 melanoma = tested on: SK-MEL-2 melanoma
RPMI-8226 leukemia = tested on: RPMI-8226 leukemia
HS 578T breast = tested on: HS 578T breast
SF-539 CNS = tested on: SF-539 CNS
MALME-3M melanoma = tested on: MALME-3M melanoma
MCF7 breast = tested on: MCF7 breast
SN12C renal = tested on: SN12C renal
SNB-19 CNS = tested on: SNB-19 CNS
OVCAR-4 ovarian = tested on: OVCAR-4 ovarian
UO-31 renal = tested on: UO-31 renal
SNB-75 CNS = tested on: SNB-75 CNS
OVCAR-8 ovarian = tested on: OVCAR-8 ovarian
HL-60(TB) leukemia = tested on: HL-60(TB) leukemia
IGROV1 ovarian = tested on: IGROV1 ovarian
HOP-62 NSCLC = tested on: HOP-62 NSCLC
OVCAR-5 ovarian = tested on: OVCAR-5 ovarian
A498 renal = tested on: A498 renal
MDA-MB-435 = tested on: MDA-MB-435
SK-OV-3 ovarian = tested on: SK-OV-3 ovarian
CCRF-CEM leukemia = tested on: CCRF-CEM leukemia
MDA-MB-231 breast = tested on: MDA-MB-231 breast
UACC-257 melanoma = tested on: UACC-257 melanoma
DU-145 prostate = tested on: DU-145 prostate
HCC-2998 colon = tested on: HCC-2998 colon

Work on `C#C[C@]1(O)CC[C@H]2[C@@H]3CC=C4c5sc(-c6cccc(O)c6)nc5CC[C@]4(C)[C@H]3CC[C@@]21C` yielded a GI50 (NCI-H226 lung) of 5250 nM, a TGI (NCI-H226 lung) of 25000 nM and a GI50 (A549 NSCLC) of 2570 nM. It also gave a TGI (A549 NSCLC) of 11000 nM, a GI50 (RXF 393 renal) of 177 nM and a TGI (RXF 393 renal) of 449 nM. For the same molecule, the GI50 (HT29 colon) was 3170 nM, the TGI (HT29 colon) was 10800 nM and the GI50 (UACC-62 melanoma) was 2300 nM. For the same molecule, the TGI (UACC-62 melanoma) was 5550 nM, the GI50 (ACHN renal) was 687 nM and the TGI (ACHN renal) was 6720 nM. For the same molecule, the GI50 (T-47D breast) was 2580 nM, the TGI (T-47D breast) was 7270 nM and the GI50 (OVCAR-3 ovarian) was 2480 nM. The TGI (OVCAR-3 ovarian) was 7460 nM, the GI50 (BT-549 breast) was 1070 nM and the TGI (BT-549 breast) was 3470 nM. For the same molecule, the GI50 (U251 CNS) was 688 nM, the TGI (U251 CNS) was 2960 nM and the GI50 (KM12 colon) was 1150 nM. The TGI (KM12 colon) was 5000 nM, the GI50 (SF-295 CNS) was 178 nM and the TGI (SF-295 CNS) was 437 nM. For the same molecule, the GI50 (COLO 205 colon) was 5410 nM, the TGI (COLO 205 colon) was 20800 nM and the GI50 (SR leukemia) was 460 nM. For the same molecule, the TGI (SR leukemia) was > 100000 nM, the GI50 (NCI-H522 lung) was 1480 nM and the TGI (NCI-H522 lung) was 3580 nM. The GI50 (K-562 leukemia) was 506 nM, the TGI (K-562 leukemia) was > 100000 nM and the GI50 (CAKI-1 renal) was 2250 nM. It also gave a TGI (CAKI-1 renal) of 5150 nM, a GI50 (TK-10 renal) of 2760 nM and a TGI (TK-10 renal) of 9190 nM. For the same molecule, the GI50 (SK-MEL-28 melanoma) was 236 nM, the TGI (SK-MEL-28 melanoma) was 640 nM and the GI50 (HOP-92 NSCLC) was 1450 nM. The TGI (HOP-92 NSCLC) was 3070 nM, the GI50 (EKVX NSCLC) was 2500 nM and the TGI (EKVX NSCLC) was 10700 nM. The GI50 (786-0 renal) was 386 nM, the TGI (786-0 renal) was 1880 nM and the GI50 (HCT-15 colon) was 505 nM. For the same molecule, the TGI (HCT-15 colon) was 1940 nM, the GI50 (M14 melanoma) was 252 nM and the TGI (M14 melanoma) was 671 nM. It also gave a GI50 (NCI-H23 lung) of 1550 nM, a TGI (NCI-H23 lung) of 3670 nM and a GI50 (SF-268 CNS) of 1990 nM. For the same molecule, the TGI (SF-268 CNS) was 17500 nM, the GI50 (PC-3 prostate) was 357 nM and the TGI (PC-3 prostate) was 1720 nM. It also gave a GI50 (NCI/ADR-RES ovarian) of 1950 nM, a TGI (NCI/ADR-RES ovarian) of 5580 nM and a GI50 (SW-620 colon) of 653 nM. It also gave a TGI (SW-620 colon) of 2360 nM, a GI50 (NCI-H460 lung) of 2570 nM and a TGI (NCI-H460 lung) of 7130 nM. The GI50 (LOX IMVI melanoma) was 269 nM, the TGI (LOX IMVI melanoma) was 1260 nM and the GI50 (HCT-116 colon) was 993 nM. It also gave a TGI (HCT-116 colon) of 3000 nM, a GI50 (SK-MEL-5 melanoma) of 1650 nM and a TGI (SK-MEL-5 melanoma) of 3060 nM. For the same molecule, the GI50 (SK-MEL-2 melanoma) was 528 nM, the TGI (SK-MEL-2 melanoma) was 2390 nM and the GI50 (RPMI-8226 leukemia) was 157 nM. For the same molecule, the TGI (RPMI-8226 leukemia) was 725 nM, the GI50 (HS 578T breast) was 207 nM and the TGI (HS 578T breast) was 642 nM. For the same molecule, the GI50 (SF-539 CNS) was 151 nM, the TGI (SF-539 CNS) was 538 nM and the GI50 (MALME-3M melanoma) was 421 nM. The TGI (MALME-3M melanoma) was 2980 nM, the GI50 (MCF7 breast) was 1560 nM and the TGI (MCF7 breast) was 4390 nM. The GI50 (SN12C renal) was 2300 nM, the TGI (SN12C renal) was 9980 nM and the GI50 (SNB-19 CNS) was 1260 nM. For the same molecule, the TGI (SNB-19 CNS) was 4280 nM, the GI50 (OVCAR-4 ovarian) was 2730 nM and the TGI (OVCAR-4 ovarian) was 9520 nM. It also gave a GI50 (UO-31 renal) of 460 nM, a TGI (UO-31 renal) of 5750 nM and a GI50 (SNB-75 CNS) of 319 nM. The TGI (SNB-75 CNS) was 6100 nM, the GI50 (OVCAR-8 ovarian) was 2100 nM and the TGI (OVCAR-8 ovarian) was > 100000 nM. It also gave a GI50 (HL-60(TB) leukemia) of 835 nM, a TGI (HL-60(TB) leukemia) of 6120 nM and a GI50 (IGROV1 ovarian) of 2980 nM. For the same molecule, the TGI (IGROV1 ovarian) was 10300 nM, the GI50 (HOP-62 NSCLC) was 1480 nM and the TGI (HOP-62 NSCLC) was 4390 nM. The GI50 (OVCAR-5 ovarian) was 2250 nM, the TGI (OVCAR-5 ovarian) was 5930 nM and the GI50 (A498 renal) was 15200 nM. It also gave a TGI (A498 renal) of 32500 nM, a GI50 (MDA-MB-435) of 1320 nM and a TGI (MDA-MB-435) of 3940 nM. For the same molecule, the GI50 (SK-OV-3 ovarian) was 2070 nM, the TGI (SK-OV-3 ovarian) was 6830 nM and the GI50 (CCRF-CEM leukemia) was 339 nM. The TGI (CCRF-CEM leukemia) was > 100000 nM, the GI50 (MDA-MB-231 breast) was 1050 nM and the TGI (MDA-MB-231 breast) was 4100 nM. For the same molecule, the GI50 (UACC-257 melanoma) was 1860 nM, the TGI (UACC-257 melanoma) was 4630 nM and the GI50 (DU-145 prostate) was 2450 nM. For the same molecule, the TGI (DU-145 prostate) was 17500 nM, the GI50 (HCC-2998 colon) was 1810 nM and the TGI (HCC-2998 colon) was 5120 nM.
